One assay concerns double-stranded NR-2. In words: Binding of PicoGreen to double-stranded NR-2 at varying buffer component concentrations (fluorescence intensity). The settings on record: for effect on the binding of PicoGreen to the double-stranded template: at the concentrations tested; for Fluorescence Intensity (% of control ± SD; n = 2): 7 nM double-stranded NR2, 600 nM PicoGreen. The method, then: To assess the effect of buffer component concentration on the binding of PicoGreen® to double-stranded NR-2, mixtures containing 7 nM double-stranded NR2, 600 nM PicoGreen®, and varying concentrations of the buffer components were prepared, and the fluorescence intensities of these mixtures were measured. These mixtures were prepared using between 4 fold less to 1.25 to 2 fold more of the individual buffer components (relative to the amount of the components used in the reactions described in Example 1).

The test system of another assay is C delta 21 NS5B. In words: Continuous-read fluorescence assay of de novo NS5B polymerase activity. In kind it is biochemical, Hepatitis C virus (HCV). The method, then:
Reactions were prepared by first placing 0.5 μL of 100% DMSO into the wells of an assay plate (Corning, black, 384-well, NBS #3654). In reactions in which modulators or inhibitors of RNA polymerase activity are to be identified, a test compound may be added to the DMSO. A solution (Solution-1) containing 162 nM of C delta 21 NS5B and 28 nM NR-2 in an assay buffer comprising 20 mM Tris-HCl, pH 7.5; 100 mM ammonium acetate; 2 mM MnCl2; 10 mM DTT; and 2 mM CHAPS, was then prepared and incubated at ambient temperature for a minimum of 15 minutes. During this incubation, a second solution (Solution-2) was prepared by mixing 76 nM of PicoGreen® with 2.7 μM UTP, 2.7 μM CTP, 2.7 μM ATP, 67 μM GTP in the assay buffer that is described above. Next, 10 μL of Solution-1 was added to the wells of the assay plate containing DMSO and the plate was incubated for 15 minutes at ambient temperature. […]
The reactions were monitored on a LJL Analyst (Molecular Devices Corp.; Sunnyvale, Calif.), which excited the PicoGreen® at 485 nm and detected PicoGreen® fluorescence at 530 nm.
The effect of increasing concentrations of PicoGreen® on reaction kinetics was also assessed. […] The calculated initial velocity (v0=span x kexp) increased as the concentration of PicoGreen® was increased from 50 to 600 nM, and appeared to plateau at between 600 and 800 nM PicoGreen® (FIG. 5C).

[1] abbreviates: component final concentration 0.5 mM.
Where [2] appears, read: component final concentration 1 mM.
Where [3] appears, read: component final concentration 2 mM.
Setting [4] is: component final concentration 4 mM.

SMILES strings stand for the structures.

Turning to `C[C@H](CCC(=O)NCCC[N+](C)(C)CCCS(=O)(=O)[O-])[C@H]1CC[C@H]2[C@@H]3[C@H](O)C[C@@H]4C[C@H](O)CC[C@]4(C)[C@H]3C[C@H](O)[C@]12C` [CHAPS], in the assay on double-stranded NR-2, the “effect on the binding of PicoGreen to the double-stranded template” value was “Neither DTT nor chaps affected the binding”. For the same molecule, the “Fluorescence Intensity (% of control ± SD; n = 2)” value in the assay on double-stranded NR-2 (setting [1]) was 98 ± 3 % of control; with double-stranded NR-2 (setting [2]), 96 ± 1 % of control; in the assay with double-stranded NR-2 (setting [3]) it was 96 ± 1 % of control; with double-stranded NR-2 (setting [4]) it was 102 ± 1 % of control.
For the molecule `O[C@@H](CS)[C@@H](O)CS` [DTT], the “effect on the binding of PicoGreen to the double-stranded template” value in the assay with double-stranded NR-2 is recorded as “Neither DTT nor chaps affected the binding”. Further, the “Fluorescence Intensity (% of control ± SD; n = 2)” value is 98 ± 5 % of control in the assay with double-stranded NR-2 (component final concentration 2.5 mM), 100 ± 2 % of control with double-stranded NR-2 (component final concentration 5 mM), 100 ± 1 % of control in the assay on double-stranded NR-2 (component final concentration 10 mM) and 96 ± 3 % of control in the assay with double-stranded NR-2 (component final concentration 20 mM).
Take `CC(=O)O.N` [Ammonium Acetate]: the “inhibition of PicoGreen binding” value in the assay with double-stranded NR-2 (at 100 mM) worked out at 5%; with double-stranded NR-2 (at 125 mM), 10%. Also, the “Fluorescence Intensity (% of control ± SD; n = 2)” value in the assay on double-stranded NR-2 (component final concentration 12.5 mM) is on record as 105 ± 1 % of control; in the assay on double-stranded NR-2 (component final concentration 25 mM) it was 103 ± 1 % of control; in the assay on double-stranded NR-2 (component final concentration 50 mM) it was 109 ± 1 % of control; with double-stranded NR-2 (component final concentration 100 mM), 95 ± 1 % of control; with double-stranded NR-2 (component final concentration 125 mM), 89 ± 2 % of control. In addition, the “effect on NS5B activity” value in the assay on C delta 21 NS5B (100 mM ammonium acetate) was “appeared to enhance NS5B activity”.
As for `[Cl][Mn][Cl]` [MnCl2], the “inhibition of the binding of PicoGreen to the template” value is “approximately 35%” in the assay with double-stranded NR-2 (at 2 mM) and ~55% in the assay with double-stranded NR-2 (at 4 mM). The “Fluorescence Intensity (% of control ± SD; n = 2)” value with double-stranded NR-2 (setting [1]) was 96 ± 2 % of control; in the assay on double-stranded NR-2 (setting [2]) it was 82 ± 1 % of control; with double-stranded NR-2 (setting [3]) it was 65 ± 1 % of control; in the assay with double-stranded NR-2 (setting [4]), 45 ± 2 % of control.
Turning to `CN(C)CCCN(CCCN(C)C)c1cc(C=C2Sc3ccccc3N2C)c2ccccc2[n+]1-c1ccccc1` [PicoGreen®, reference compound], the “change of experimental rate constant (kexp) of the first-order reaction” value in the assay with C delta 21 NS5B (at 600 nM PicoGreen) is listed as “slightly less than a two-fold decrease”.

The values are drawn from patent US20040209283A1, “Continuous-read assay for the detection of de novo HCV RNA polymerase activity” (Pfizer Inc., priority 2002, published 2004).
